Experiments:
[1] = molecular target: T1, Nuclear receptor ROR-gamma (Mus musculus, UniProt P51450); test: Inverse agonist activity at RORgammat in mouse CD4 positive T cells assessed as inhibition of Th17 cell differentiation by measuring IL-17 release after 4 days by cellular staining based flow cytometry
T1 sequence (P51450 whole entry): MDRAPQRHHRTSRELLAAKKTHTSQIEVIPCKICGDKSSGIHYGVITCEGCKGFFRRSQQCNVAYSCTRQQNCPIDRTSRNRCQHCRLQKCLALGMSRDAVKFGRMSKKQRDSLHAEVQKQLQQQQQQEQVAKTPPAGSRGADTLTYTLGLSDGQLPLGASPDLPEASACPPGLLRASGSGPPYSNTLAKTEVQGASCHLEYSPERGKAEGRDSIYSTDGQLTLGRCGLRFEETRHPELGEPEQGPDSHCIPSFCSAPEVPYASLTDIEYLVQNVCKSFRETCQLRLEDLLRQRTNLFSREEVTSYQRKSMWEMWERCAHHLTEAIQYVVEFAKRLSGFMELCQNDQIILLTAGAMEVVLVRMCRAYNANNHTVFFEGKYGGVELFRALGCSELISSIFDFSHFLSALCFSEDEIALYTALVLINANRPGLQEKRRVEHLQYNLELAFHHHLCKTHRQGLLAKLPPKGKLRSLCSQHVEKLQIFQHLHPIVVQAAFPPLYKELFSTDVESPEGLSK

[2] = molecular target: T2, Nuclear receptor ROR-gamma (Homo sapiens, UniProt P51449); test: Inverse agonist activity at APC-labeled biotinylated RORgammat LBD (unknown origin) assessed as inhibition of N-(2-chloro-6-fluorobenzyl)-N-((20-methoxy-[1,10-biphenyl]-4-yl)methyl)benzenesulfonamide-induced co-activator europium-labeled biotinylated SRC1 peptide recruitment after 1 hr by LANCE-FRET assay
T2 sequence (P51449 whole entry): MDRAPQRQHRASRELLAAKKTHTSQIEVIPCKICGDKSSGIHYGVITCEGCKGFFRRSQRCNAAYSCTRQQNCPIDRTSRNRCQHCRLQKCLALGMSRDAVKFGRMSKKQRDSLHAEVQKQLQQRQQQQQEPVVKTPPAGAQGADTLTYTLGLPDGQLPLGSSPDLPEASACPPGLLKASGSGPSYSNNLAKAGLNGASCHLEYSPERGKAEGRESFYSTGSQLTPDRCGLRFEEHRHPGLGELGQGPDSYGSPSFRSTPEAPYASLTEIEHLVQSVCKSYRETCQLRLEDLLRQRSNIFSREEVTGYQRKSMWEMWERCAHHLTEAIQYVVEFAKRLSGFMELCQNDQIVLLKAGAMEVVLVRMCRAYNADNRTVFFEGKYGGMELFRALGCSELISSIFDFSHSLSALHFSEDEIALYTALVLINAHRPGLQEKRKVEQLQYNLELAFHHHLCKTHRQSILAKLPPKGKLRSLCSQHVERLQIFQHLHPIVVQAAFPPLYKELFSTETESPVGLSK

## N#Cc1cccc(C(=O)Nc2ccc3c(c2)[C@H](N2CC4CCC(C2)N4C(=O)C2CCCCC2)CC3)c1
[1]
  IC50: Not Active

## N#Cc1cccc(C(=O)Nc2cccc3c2ccn3C2CCN(C(=O)C3CCCC3)CC2)c1
[2]
  IC50: Not Active

## O=C(CC1CCOCC1)Nc1cccc2c1CCC2N1CC2CCC(C1)N2C(=O)C1CCCC1 (stereo not drawn)
[2]; read-out: IC50
  IC50: > 10 µM
